Reference: US20180228780A1, “3-(1H-PYRROLO[2,3-C]PYRIDIN-2-YL)-1H-INDAZOLES AND THERAPEUTIC USES THEREOF” (Samumed, LLC, priority 2015, published 2018)

Experiments:
Type in all cases: cell-based
[1] = tested on: Wnt activity (Sp5-Luc reporter, SW480 colon carcinoma cells); assay: Screening assay for Wnt activity: Sp5-Luc reporter gene assay in SW480 cells; conditions: Homo sapiens; for EC50: SW480 Sp5-Luc reporter, overnight incubation; for inhibition at 10 µM: SW480, read-out: percent inhibition at 10 μM
Source text: The screening assay for Wnt activity is described as follows. Reporter cell lines can be generated by stably transducing cancer cell lines (e.g., colon cancer) or primary cells (e.g., IEC-6 intestinal cells) with a lentiviral construct that includes a Wnt-responsive promoter driving expression of the firefly luciferase gene.
SW480 colon carcinoma cells were transduced with a lentiviral vector expressing luciferase with a human Sp5 promoter consisting of a sequence of eight TCF/LEF binding sites. SW480 cells stably expressing the Sp5-Luc reporter gene and a hygromycin resistance gene were selected by treatment with 150 μg/mL of hygromycin for 7 days. These stably transduced SW480 cells were expanded in cell culture and used for all further screening activities. […] For Sp5-Luc reporter gene assays, the cells were plated at 4,000 cells/well in 384-well plates with medium containing 1% fetal bovine serum and incubated overnight at 37° C. and 5% CO2. Following incubation, 20 μl of BrightGlo luminescence reagent (Promega) was added to each well of the 384-well assay plates. The plates were placed on an orbital shaker for 2 min and then luminescence was quantified using the Envision (Perkin Elmer) plate reader. Readings were normalized to DMSO only treated cells, and normalized activities were utilized for EC50 calculations using the dose-response log (inhibitor) vs. response-variable slope (four parameters) nonlinear regression feature available in GraphPad Prism 5.0 (or Dotmatics).

[2] = tested on: SW480 colon cancer cells; assay: Cell viability assay (CellTiter-Blue) in SW480 colon cancer cells; conditions: Homo sapiens; for EC50: 96 h, SW480 cell viability, four days incubation; for inhibition at 10 µM: SW480, read-out: percent inhibition at 10 μM
Procedure: Representative compounds were screened using the following assay procedure to assess the effect on cell viability as described below.
Approximately 2×10^3 SW480 colon cancer cells were seeded into each well and allowed to incubate in the presence or absence of compound for four days at 37° C./5% CO2. Eight replicates of DMSO-treated cells served as controls and cells treated with compound were performed in duplicate.
After incubation, 20 μL of CellTiter-Blue (Promega) was added to each well allowed to incubate for approximately 3 hours. This reagent was a buffered solution which contains resazurin, metabolically active cells were able to reduce rezarurin (blue) into resorufin (pink) which was highly fluorescent. This measured fluorescence was used as a readout for cell viability.

[3] = tested on: Primary human fibroblasts derived from IPF patients (LL29 cells); assay: Inhibition of the fibrotic process: αSMA staining in TGF-β1-treated LL29 fibroblasts; conditions: Fibroblast; for EC50: 96 h, LL29 cells, TGF-β1 20 ng/mL, 4 days, % αSMA-positive cells; for inhibition at 10 µM: read-out: percent inhibition at 10 μM
Source text: Representative compounds were screened using primary human fibroblasts (derived from IFF patients) treated with TGF-β1 to determine their ability to inhibit the fibrotic process.
K. L., et.al., “RhoA signaling modulates cyclin D1 expression in human lung fibroblasts; implications for idiopathic pulmonary fibrosis”, Respiratory Research (2006), 7(1), 88] were obtained from American Type Culture Collection (ATCC) and expanded in F12 medium supplemented with 15% Fetal Bovine Serum and Penicillin/Streptomycin.
LL29 cells are plated at 1,500 cells/well in 80 μL/well F12 medium supplemented with 1% Fetal Bovine Serum. […] Wells treated with TGF-β1 and containing DMSO were used as controls. […] Following incubation for 4 days, SYTOX green nucleic acid stain (Life Technologies [Thermo Fisher Scientific]) was added to the wells at a final concentration of 1 μM and incubated at room temperature for 30 min.

[4] = tested on: primary human mesenchymal stem cells (hMSCs); assay: Induction of chondrogenesis in hMSCs (nodule imaging, Rhodamine B / Nile Red); conditions: 6 days; for EC50: concentration required to induce 50% levels of chondrogenesis vs TGF-β3, read-out: Conc (nM) of 50% TGF-β3 activity; for Emax: relative to TGF-β3 (10 ng/mL) positive control, read-out: Max. Activity as % TGF-β3 activity
Source text: Representative compounds were screened using primary human mesenchymal stem cells (hMSCs) to determine their ability to induce chondrogenesis (process by which cartilage is developed).
Primary human mesenchymal stem cells (hMSCs) were purchased from Lonza (Walkersville, Md.) and expanded in Mesenchymal Stem Cell Growth Media (Lonza). Cells between passage 3 and 6 were used for the experiments.
Area of nodules in each well was normalized to the average of 3 DMSO treated wells on the same plate using Excel (Microsoft Inc.). The normalized averages (fold change over DMSO) of 2 or 3 replicate wells for each compound concentration were calculated. Due to solubility limitations of some of the compounds, curve fitting was incomplete leading to inaccurate EC50 determinations.
Using TGF-β3 as a positive control, the concentration of representative compounds required to induce 50% levels of chondrogenesis is reported. In addition, the maximum activity of each compound and the respective dose that each compound reached maximum chondrogenesis activity is reported.

[5] = tested on: IL-6 (THP-1 cells); assay: IL-6 inhibition in THP-1 monocytes (HTRF); conditions: Homo sapiens; for EC50: IL-6 inhibition, THP-1 cells, HTRF, 10-point dose-response starting from 10 μM; for inhibition at 10 µM: THP-1, read-out: percentage in parentheses printed under EC50 >10
Procedure: Compound Screening: THP-1 cells were cultured in basal media with 1% FBS for 24 hours before the start of the assay. […] THP-1 cells were plated at 5000 cells/well in the 384-well plates and incubated at 37° C. for 2 h. 500 ng/mL of […] was added after 2 hours and cells were incubated for another 22 hours at 37° C. Plates were spun in a centrifuge for 1 minute at 10,000 rpm and a mixture of anti-IL6 XL665, and anti-IL6 Cryptate diluted in reconstitution buffer (Cisbio Inc.) was added to each well. Following incubation for 3 hrs at room temperature, Homogeneous Time-Resolved Fluorescence (HTRF) was measured using the Envision (Perkin Elmer) at 665 nm and […]. The ratio of fluorescence at 665 nm to 620 nm was used as a readout for IL6 quantification. All samples were processed in duplicate. Readings were normalized to DMSO treated cells and normalized activities were utilized for EC50 calculations using the dose-response log (inhibitor) vs. response-variable slope (four parameters) nonlinear regression feature available in GraphPad Prism 5.0 (or Dotmatics).

SMILES	EC50 [1]	EC50 [2]	EC50 [4]	EC50 [5]	EC50 [3]	Emax [4]	inhibition at 10 µM [1]	inhibition at 10 µM [2]	inhibition at 10 µM [3]	inhibition at 10 µM [5]
O=C(Nc1cncc(-c2ccc3[nH]nc(-c4cc5c(-c6cccc(F)c6)cncc5[nH]4)c3c2)c1)C1CC1 [Compound 20, N-(5-(3-(4-(3-Fluorophenyl)-1H-pyrrolo[2,3-c]pyridin-2-yl)-1H-indazol-5-yl)pyridin-3-yl)cyclopropanecarboxamide]	45 nM	67 nM	900 nM	17 nM	122 nM	94%	–	–	–	–
c1cncc(-c2cncc3[nH]c(-c4n[nH]c5ccc(-c6cncnc6)cc45)cc23)c1 [Compound 111, 3-(4-(pyridin-3-yl)-1H-pyrrolo[2,3-c]pyridin-2-yl)-5-(pyrimidin-5-yl)-1H-indazole]	> 10000 nM	> 10000 nM	2700 nM	> 10000 nM	> 10000 nM	58%	14.5%	7.5%	46.5%	42.4%
CN(C)Cc1cncc(-c2ccc3[nH]nc(-c4cc5c(-c6ccncc6)cncc5[nH]4)c3c2)c1 [Compound 125]	1060 nM	2170 nM	–	1160 nM	2440 nM	18%	–	–	–	–
Fc1cccc(-c2cncc3[nH]c(-c4n[nH]c5ccc(C6CCNCC6)cc45)cc23)c1 [Compound 505, 3-(4-(3-Fluorophenyl)-1H-pyrrolo[2,3-c]pyridin-2-yl)-5-(piperidin-4-yl)-1H-indazole]	3230 nM	4150 nM	2700 nM	5430 nM	2500 nM	51%	–	–	–	–
COc1cncc(-c2ccc3[nH]nc(-c4cc5c(-c6ccoc6)cncc5[nH]4)c3c2)c1 [Compound 692, 3-(4-(Furan-3-yl)-1H-pyrrolo[2,3-c]pyridin-2-yl)-5-(5-methoxypyridin-3-yl)-1H-indazole]	2200 nM	1100 nM	10 nM	8270 nM	728 nM	170%	–	–	–	–
Nc1cncc(-c2ccc3[nH]nc(-c4cc5c(-c6ccccc6F)cncc5[nH]4)c3c2)c1 [Compound 59, 5-(3-(4-(2-Fluorophenyl)-1H-pyrrolo[2,3-c]pyridin-2-yl)-1H-indazol-5-yl)pyridin-3-amine]	875 nM	> 10000 nM	10 nM	4500 nM	2900 nM	58%	–	27.9%	–	–
Fc1cccc(-c2cncc3[nH]c(-c4n[nH]c5ccc(-c6cncc(CN7CCC(F)(F)C7)c6)cc45)cc23)c1 [Compound 26, 5-(5-((3,3-Difluoropyrrolidin-1-yl)methyl)pyridin-3-yl)-3-(4-(3-fluorophenyl)-1H-pyrrolo[2,3-c]pyridin-2-yl)-1H-indazole]	160 nM	734 nM	2700 nM	74 nM	322 nM	87%	–	–	–	–

Second part, led by results:

EC50 [1]	EC50 [2]	EC50 [4]	EC50 [5]	SMILES	EC50 [3]	Emax [4]	inhibition at 10 µM [1]	inhibition at 10 µM [2]	inhibition at 10 µM [3]	inhibition at 10 µM [5]
244 nM	901 nM	–	56 nM	CCC(=O)Nc1cncc(-c2ccc3[nH]nc(-c4cc5c(-c6cc(F)cc(CNS(C)(=O)=O)c6)cncc5[nH]4)c3c2)c1 [Compound 477, N-(5-(3-(4-(3-Fluoro-5-(methylsulfonamidomethyl)phenyl)-1H-pyrrolo[2,3-c]pyridin-2-yl)-1H-indazol-5-yl)pyridin-3-yl)propionamide]	1640 nM	29%	–	–	–	–
670 nM	355 nM	–	2420 nM	Fc1cccc(-c2cncc3[nH]c(-c4n[nH]c5ccc(-c6ccccn6)cc45)cc23)c1 [Compound 28, 3-(4-(3-Fluorophenyl)-1H-pyrrolo[2,3-c]pyridin-2-yl)-5-(pyridin-2-yl)-1H-indazole]	460 nM	26%	–	–	–	–
1400 nM	2030 nM	–	209 nM	O=C(Nc1cncc(-c2ccc3[nH]nc(-c4cc5c(-c6cccnc6)cncc5[nH]4)c3c2)c1)C1CCCC1 [Compound 106, N-(5-(3-(4-(Pyridin-3-yl)-1H-pyrrolo[2,3-c]pyridin-2-yl)-1H-indazol-5-yl)pyridin-3-yl)cyclopentanecarboxamide]	2320 nM	45%	–	–	–	–
191 nM	109 nM	300 nM	26 nM	Cc1ccncc1-c1ccc2[nH]nc(-c3cc4ccncc4[nH]3)c2c1 [Compound 257, 5-(4-Methylpyridin-3-yl)-3-(1H-pyrrolo[2,3-c]pyridin-2-yl)-1H-indazole]	484 nM	161%	–	–	–	–
> 10000 nM	> 10000 nM	100 nM	187 nM	CCNCc1cncc(-c2ccc3[nH]nc(-c4cc5c(-c6cc(F)cc(CNS(C)(=O)=O)c6)cncc5[nH]4)c3c2)c1 [Compound 482, N-(3-(2-(5-(5-((Ethylamino)methyl)pyridin-3-yl)-1H-indazol-3-yl)-1H-pyrrolo[2,3-c]pyridin-4-yl)-5-fluorobenzyl)methanesulfonamide]	> 10000 nM	58%	29.8%	24.3%	17.1%	–
395 nM	> 10000 nM	–	765 nM	O=C(Nc1cncc(-c2ccc3[nH]nc(-c4cc5c(-c6ccncc6)cncc5[nH]4)c3c2)c1)C1CC1 [Compound 132, N-(5-(3-(4-(Pyridin-4-yl)-1H-pyrrolo[2,3-c]pyridin-2-yl)-1H-indazol-5-yl)pyridin-3-yl)cyclopropanecarboxamide]	> 10000 nM	37%	–	20.6%	35.6%	–
875 nM	> 10000 nM	30 nM	> 10000 nM	CC(C)CC(=O)Nc1cncc(-c2ccc3[nH]nc(-c4cc5c(-c6ccncc6)cncc5[nH]4)c3c2)c1 [Compound 114]	> 10000 nM	70%	–	24.8%	47%	15.9%
